Source: the NIST ThermoML archive (doi:10.1016/j.fluid.2017.06.018)

Experiments:
[1] = xn = mol fraction of the nth substance listed; conditions: 100 kPa, Liquid; for viscosity: Falling or rolling sphere viscometry; for mass density: Vibrating tube method
[2] = refractive index (Na D-line) (dimensionless); xn = mol fraction of the nth substance listed; conditions: 100 kPa, Liquid, Standard Abbe refractometry

NCCNCCO [N-(2-aminoethyl)ethanolamine] + NCCO
Conditions	mass density, 298.15 K [kg/m3]	mass density, 303.15 K [kg/m3]	mass density, 308.15 K [kg/m3]	refractive index, 298.15 K	refractive index, 303.15 K	refractive index, 308.15 K	viscosity, 298.15 K [mPa·s]	viscosity, 303.15 K [mPa·s]	viscosity, 308.15 K [mPa·s]
[1], x2 = 0	1025.8	1021.3	1016.3	–	–	–	98.62	70.57	53.11
[1], x2 = 0.1072	1025.7	1021.4	1016.6	–	–	–	95.09	69.25	52.77
[1], x2 = 0.2634	1025.2	1020.9	1016.2	–	–	–	90.58	67.59	52.68
[1], x2 = 0.4233	1024.4	1020.2	1015.7	–	–	–	78.29	59.5	46.92
[1], x2 = 0.5481	1023.4	1019.3	1014.9	–	–	–	64.72	48.92	38.49
[1], x2 = 0.6305	1022.5	1018.4	1014.1	–	–	–	53.12	39.84	31.01
[1], x2 = 0.6851	1021.7	1017.6	1013.4	–	–	–	44.75	32.81	25.15
[1], x2 = 0.7988	1019.4	1015.5	1011.4	–	–	–	27.93	20.04	14.71
[1], x2 = 0.8459	1018.2	1014.3	1010.3	–	–	–	22.36	15.94	11.31
[1], x2 = 0.9377	1015.2	1011.4	1007.5	–	–	–	17.18	12.82	9.55
[2], x2 = 0	–	–	–	1.4843	1.4827	1.4811	–	–	–
[2], x2 = 0.1005	–	–	–	1.4824	1.481	1.4796	–	–	–
[2], x2 = 0.1993	–	–	–	1.4799	1.4785	1.4771	–	–	–
[2], x2 = 0.299	–	–	–	1.4774	1.476	1.4745	–	–	–
[2], x2 = 0.4047	–	–	–	1.4742	1.4728	1.4715	–	–	–
[2], x2 = 0.5033	–	–	–	1.4714	1.47	1.4685	–	–	–
[2], x2 = 0.5985	–	–	–	1.4683	1.4668	1.4652	–	–	–
[2], x2 = 0.6981	–	–	–	1.4647	1.4633	1.462	–	–	–
[2], x2 = 0.7985	–	–	–	1.4611	1.4598	1.4585	–	–	–
[2], x2 = 0.8996	–	–	–	1.4573	1.4559	1.4545	–	–	–

NCCNCCN [di(2-aminoethyl)amine] + NCCO
Conditions	mass density, 298.15 K [kg/m3]	mass density, 303.15 K [kg/m3]	mass density, 308.15 K [kg/m3]	refractive index, 298.15 K	refractive index, 303.15 K	refractive index, 308.15 K	viscosity, 298.15 K [mPa·s]	viscosity, 303.15 K [mPa·s]	viscosity, 308.15 K [mPa·s]
[1], x2 = 0	945.8	942.1	937.8	–	–	–	5.63	4.5	3.85
[1], x2 = 0.1619	956.5	953.1	949.1	–	–	–	8.28	6.59	5.38
[1], x2 = 0.2973	964.6	961.1	957.1	–	–	–	10.37	8.33	6.68
[1], x2 = 0.4258	972.6	969	965.3	–	–	–	12.15	9.76	7.8
[1], x2 = 0.5307	979.4	975.9	972.3	–	–	–	13.87	11.18	8.89
[1], x2 = 0.6308	986.3	982.8	979.2	–	–	–	15.47	12.48	9.99
[1], x2 = 0.7174	992.7	989.2	985.6	–	–	–	16.82	13.6	10.89
[1], x2 = 0.798	998.7	995.5	992	–	–	–	18.22	14.73	11.84
[1], x2 = 0.879	1005.1	1001.7	998.5	–	–	–	19.23	15.49	12.42
[1], x2 = 0.9336	1008.9	1005.6	1002.4	–	–	–	19.31	15.49	12.34
[2], x2 = 0	–	–	–	1.4822	1.4808	1.4793	–	–	–
[2], x2 = 0.0989	–	–	–	1.4815	1.4802	1.4791	–	–	–
[2], x2 = 0.2021	–	–	–	1.4806	1.4791	1.4778	–	–	–
[2], x2 = 0.3013	–	–	–	1.4794	1.4778	1.4765	–	–	–
[2], x2 = 0.4007	–	–	–	1.4778	1.4764	1.4752	–	–	–
[2], x2 = 0.4984	–	–	–	1.4758	1.4743	1.4729	–	–	–
[2], x2 = 0.6007	–	–	–	1.4731	1.4717	1.4703	–	–	–
[2], x2 = 0.7027	–	–	–	1.4696	1.4683	1.467	–	–	–
[2], x2 = 0.8002	–	–	–	1.4657	1.4643	1.4631	–	–	–
[2], x2 = 0.8987	–	–	–	1.4608	1.4591	1.4577	–	–	–
